These results are taken from PubChem BioAssay (NCI).

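Each compound was tested at five concentrations against cells in 96-well plates for 48 hours. TGI denotes the concentration required for complete inhibition of growth.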 Where a SMILES comes first, the peptide text is derived from it. [ ]: non-standard residue; d: D form. The star is where a group is joined. ξ: configuration not given here. ξF = NC(Cc1ccccc1)C(=O)O; Cbz = O=C(OCc1ccccc1)*; Aib = CC(C)(N)C(=O)O; NHNH2 = NN*

Among the test systems are 786-0 renal; CAKI-1 renal; COLO 205 colon; HOP-62 NSCLC; HS 578T breast; K-562 leukemia; NCI-H460 lung; OVCAR-3 ovarian; OVCAR-5 ovarian; PC-3 prostate; RPMI-8226 leukemia; SF-268 CNS; SF-539 CNS; SK-OV-3 ovarian; SN12C renal; SNB-19 CNS; U251 CNS.
What all share (experiment): growth of human tumour cells (NCI), 48 h

Take `CC(C)OC(=O)c1ccc(CCC2=CC(=O)C=CC2=O)cc1`: the TGI with 786-0 renal was 15.6 µM; in the assay with CAKI-1 renal it was 4.26 µM; in the assay on COLO 205 colon it was 22.1 µM; with HOP-62 NSCLC, 47.4 µM; in the assay on HS 578T breast, 50 µM; in the assay on K-562 leukemia it was > 37.1 µM. Moreover, the TGI is 54.1 µM with NCI-H460 lung; 17 µM with OVCAR-3 ovarian; 29.4 µM in the assay on OVCAR-5 ovarian; 26.1 µM in the assay on PC-3 prostate; 24.2 µM in the assay with RPMI-8226 leukemia; 28.6 µM in the assay with SF-268 CNS. In addition, the TGI in the assay with SF-539 CNS was 17.1 µM; in the assay with SK-OV-3 ovarian, > 88.6 µM; in the assay on SN12C renal, 26.5 µM; in the assay with SNB-19 CNS, 56.8 µM; with U251 CNS, 37.8 µM.

For `CN(C)CCCN1C(=S)N(CCCN(C)C)c2c3ccccc3nc3c([N+](=O)[O-])ccc1c23`, the TGI with 786-0 renal was 18.2 µM; in the assay on CAKI-1 renal, 19.7 µM; in the assay on COLO 205 colon it was 4.8 µM; with HOP-62 NSCLC, 47 µM; in the assay with HS 578T breast, 41 µM; with K-562 leukemia, > 37.6 µM. For the same molecule, the TGI in the assay with NCI-H460 lung is 18 µM; with OVCAR-3 ovarian, 24.4 µM; with OVCAR-5 ovarian, 39.5 µM; with PC-3 prostate it was > 42.4 µM; in the assay with RPMI-8226 leukemia, 50.6 µM; in the assay on SF-268 CNS, 32.5 µM. In addition, the TGI worked out at 23 µM with SF-539 CNS; 50.8 µM in the assay with SK-OV-3 ovarian; 18.1 µM in the assay on SN12C renal; 26 µM in the assay on SNB-19 CNS; 20.7 µM in the assay on U251 CNS.

For `COc1cc(OC)c2c(c1)OC(c1ccccc1)CC2=O` (stereo unspecified), the TGI in the assay on 786-0 renal, in the assay with CAKI-1 renal, in the assay with COLO 205 colon, with HOP-62 NSCLC, in the assay on HS 578T breast and in the assay on K-562 leukemia was > 10 µM each time. The TGI in the assay on NCI-H460 lung, with OVCAR-3 ovarian, with OVCAR-5 ovarian, in the assay on PC-3 prostate, with RPMI-8226 leukemia and in the assay on SF-268 CNS was > 10 µM each time. Moreover, the TGI in the assay on SF-539 CNS, with SK-OV-3 ovarian, in the assay on SN12C renal, in the assay on SNB-19 CNS and with U251 CNS was > 10 µM each time.

Regarding `CN(C)CCCc1cccc2[nH]c3c(c12)CN(C)CC3`, the TGI in the assay with 786-0 renal, with CAKI-1 renal, in the assay on COLO 205 colon, with HOP-62 NSCLC, in the assay with HS 578T breast and in the assay on K-562 leukemia was > 100 µM each time. In addition, the TGI in the assay on NCI-H460 lung, with OVCAR-3 ovarian, with OVCAR-5 ovarian, in the assay with PC-3 prostate, in the assay on RPMI-8226 leukemia and in the assay on SF-268 CNS was > 100 µM in each case. The TGI with SF-539 CNS, in the assay on SK-OV-3 ovarian, in the assay with SN12C renal, in the assay with SNB-19 CNS and in the assay on U251 CNS was > 100 µM in each case.

For the molecule `N#Cc1nc(CCN2C(=O)c3ccccc3C2=O)oc1N`, the TGI in the assay on 786-0 renal, with CAKI-1 renal, in the assay with COLO 205 colon, in the assay with HOP-62 NSCLC, with HS 578T breast and with K-562 leukemia was > 100 µM each time. The TGI with NCI-H460 lung, in the assay on OVCAR-3 ovarian, with OVCAR-5 ovarian, in the assay on PC-3 prostate, in the assay on RPMI-8226 leukemia and with SF-268 CNS was > 100 µM in each case. In addition, the TGI in the assay on SF-539 CNS, with SK-OV-3 ovarian, in the assay with SN12C renal, in the assay with SNB-19 CNS and in the assay with U251 CNS was > 100 µM throughout.

As to `CCOc1cc(C2SCC(=O)N2c2ccc(Oc3ccc(Cl)cc3)c(Cl)c2)ccc1O` (stereo unspecified), the TGI with 786-0 renal is 45.8 µM; with CAKI-1 renal, 32.6 µM; with COLO 205 colon it was 41.3 µM; in the assay with HOP-62 NSCLC, 40.8 µM; with HS 578T breast it was 37.1 µM; in the assay on K-562 leukemia it was > 100 µM. In addition, the TGI was 39.1 µM in the assay with NCI-H460 lung; 30.6 µM in the assay on OVCAR-3 ovarian; 53.3 µM with OVCAR-5 ovarian; 33.4 µM with PC-3 prostate; 80.1 µM in the assay with RPMI-8226 leukemia; 30.9 µM with SF-268 CNS. Besides, the TGI is 32.5 µM with SF-539 CNS; 37.3 µM in the assay with SK-OV-3 ovarian; 59.3 µM with SN12C renal; 34.8 µM in the assay with SNB-19 CNS; 35.7 µM with U251 CNS.

`Cc1ccn2c(=O)cc(CN3CCOCC3)nc2c1`: the TGI with 786-0 renal, in the assay on CAKI-1 renal, in the assay with COLO 205 colon, in the assay on HOP-62 NSCLC, in the assay with HS 578T breast and with K-562 leukemia was > 100 µM each time. For the same molecule, the TGI in the assay on NCI-H460 lung, in the assay with OVCAR-3 ovarian, in the assay with OVCAR-5 ovarian, in the assay with PC-3 prostate, in the assay on RPMI-8226 leukemia and in the assay with SF-268 CNS was > 100 µM in each case. Further, the TGI in the assay on SF-539 CNS, with SK-OV-3 ovarian, in the assay on SN12C renal, in the assay with SNB-19 CNS and with U251 CNS was > 100 µM throughout.

For `CC(C)(NC(=O)OCc1ccccc1)C(=O)NC(Cc1ccccc1)C(=O)NN` (stereo unspecified) (Cbz-[Aib]-[ξF]-NHNH2), the TGI in the assay with 786-0 renal, in the assay with CAKI-1 renal, in the assay on COLO 205 colon, in the assay with HOP-62 NSCLC, with HS 578T breast and in the assay with K-562 leukemia was > 100 µM in each case. The TGI in the assay with NCI-H460 lung, with OVCAR-3 ovarian, in the assay on OVCAR-5 ovarian, in the assay on PC-3 prostate, in the assay with RPMI-8226 leukemia and in the assay with SF-268 CNS was > 100 µM throughout. Further, the TGI in the assay on SF-539 CNS, in the assay with SK-OV-3 ovarian, in the assay with SN12C renal, in the assay on SNB-19 CNS and in the assay with U251 CNS was > 100 µM throughout.
